PubChem BioAssay AID624129 (Sanford-Burnham Center for Chemical Genomics, 2012)
Active and inactive are the calls of the source. How the calls were made is not given here.

Key:
Assay in all cases: CXCR6 receptor antagonists, dose response, cell-based, beta-arrestin, DiscoveRx, APJ panel, uHTS hits (AID 624129)
[1] = target: Apelin receptor (Homo sapiens) (UniProt P35414); conditions: CXCR6 beta-arrestin (DiscoveRx) antagonist cell assay, APJ
[2] = target: Beta-galactosidase (Escherichia coli) (UniProt Q8VNN2); conditions: CXCR6 beta-arrestin (DiscoveRx) antagonist cell assay, b-galactosidase
[3] = target: C-C chemokine receptor type 6 (Homo sapiens) (UniProt P51684); conditions: CXCR6 beta-arrestin (DiscoveRx) antagonist cell assay
[4] = target: C-X-C chemokine receptor type 6 (Homo sapiens) (UniProt O00574); conditions: CXCR6 beta-arrestin (DiscoveRx) antagonist cell assay
[5] = dose range 1, mean IC50 across replicates
[6] = CCR6, dose range 1, mean IC50 across replicates
[7] = CXCR6, dose range 1, mean IC50 across replicates
[8] = CXCR6, run 1, dose range 2, at 80 µM (top of the series)

Beta-galactosidase (Escherichia coli), sequence (Q8VNN2 whole entry, looked up): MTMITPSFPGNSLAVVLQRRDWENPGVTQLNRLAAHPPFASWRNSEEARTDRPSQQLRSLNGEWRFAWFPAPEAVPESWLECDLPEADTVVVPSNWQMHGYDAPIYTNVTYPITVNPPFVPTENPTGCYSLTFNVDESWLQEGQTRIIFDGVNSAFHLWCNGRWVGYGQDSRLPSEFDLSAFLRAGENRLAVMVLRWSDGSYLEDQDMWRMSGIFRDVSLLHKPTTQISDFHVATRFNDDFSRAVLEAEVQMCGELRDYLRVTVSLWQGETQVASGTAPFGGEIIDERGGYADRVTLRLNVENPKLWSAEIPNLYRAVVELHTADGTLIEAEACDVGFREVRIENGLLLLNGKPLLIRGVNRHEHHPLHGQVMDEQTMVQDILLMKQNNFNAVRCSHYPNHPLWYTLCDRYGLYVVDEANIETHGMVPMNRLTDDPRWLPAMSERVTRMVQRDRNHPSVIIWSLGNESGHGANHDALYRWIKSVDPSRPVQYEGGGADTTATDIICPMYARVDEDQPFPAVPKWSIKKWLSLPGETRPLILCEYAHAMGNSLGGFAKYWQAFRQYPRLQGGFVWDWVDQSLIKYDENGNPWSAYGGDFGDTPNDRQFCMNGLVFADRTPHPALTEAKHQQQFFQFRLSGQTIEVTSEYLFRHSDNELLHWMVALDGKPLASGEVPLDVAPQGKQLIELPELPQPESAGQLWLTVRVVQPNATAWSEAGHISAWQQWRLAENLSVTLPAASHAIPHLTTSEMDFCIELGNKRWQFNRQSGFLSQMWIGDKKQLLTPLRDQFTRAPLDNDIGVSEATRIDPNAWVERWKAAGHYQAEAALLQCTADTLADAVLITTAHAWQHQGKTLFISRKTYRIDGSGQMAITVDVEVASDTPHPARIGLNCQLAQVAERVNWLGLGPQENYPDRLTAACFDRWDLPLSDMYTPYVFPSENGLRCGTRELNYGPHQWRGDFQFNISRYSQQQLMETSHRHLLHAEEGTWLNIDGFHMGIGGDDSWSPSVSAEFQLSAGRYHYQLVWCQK
C-X-C chemokine receptor type 6 (Homo sapiens), sequence (O00574 whole entry, looked up): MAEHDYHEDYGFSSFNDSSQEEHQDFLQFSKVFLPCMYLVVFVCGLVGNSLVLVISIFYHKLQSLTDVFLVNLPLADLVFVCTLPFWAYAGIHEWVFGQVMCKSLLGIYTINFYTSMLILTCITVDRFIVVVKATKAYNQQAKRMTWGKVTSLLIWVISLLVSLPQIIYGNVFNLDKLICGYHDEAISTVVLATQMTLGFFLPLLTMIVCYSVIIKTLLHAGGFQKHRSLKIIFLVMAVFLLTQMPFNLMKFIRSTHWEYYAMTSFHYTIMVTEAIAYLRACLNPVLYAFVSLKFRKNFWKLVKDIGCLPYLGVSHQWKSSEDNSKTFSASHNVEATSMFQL

| SMILES | IC50 ([1]; dose range 1) | IC50 [1, 5] | IC50 ([1]; run 2, dose range 1) | IC50 ([1]; run 3, dose range 1) | IC50 ([2]; dose range 1) | IC50 [2, 5] | IC50 ([3]; CCR6, dose range 1) | IC50 [3, 6] | IC50 ([3]; CCR6, run 2, dose range 1) | IC50 ([4]; CXCR6, dose range 1) | IC50 [4, 7] | IC50 ([4]; CXCR6, run 1, dose range 2) | IC50 ([4]; CXCR6, run 2, dose range 1) | IC50 ([4]; CXCR6, run 2, dose range 2) | inhibition [4, 8] | inhibition ([4]; CXCR6, run 1, dose range 2, at 20 µM (top of the series)) |
| --- | --- | --- | --- | --- | --- | --- | --- | --- | --- | --- | --- | --- | --- | --- | --- | --- |
| O=C(CSc1cccc2cccnc12)N1CCCC1 | 4.54 µM | 5.35 µM | 6.22 µM | 5.31 µM | > 80 µM (inactive) | > 80 µM | 4.22 µM | 5.29 µM | 6.36 µM | 10.7 µM | 6.17 µM | 4.06 µM | 6.29 µM | 3.6 µM | – | – |
| O=[N+]([O-])c1ccc(Sc2cccc3cccnc23)c([N+](=O)[O-])c1 | 3.05 µM | 3.73 µM | 4.26 µM | 3.89 µM | > 80 µM (inactive) | > 80 µM | 3.32 µM | 4.21 µM | 5.09 µM | 5 µM | 4 µM | 3.2 µM | 4.65 µM | 3.15 µM | – | – |
| O=[N+]([O-])c1c(Nc2ccc(O)cc2)cc(Cl)c2nonc12 | 6.33 µM | 8.66 µM | 4.41 µM | 15.2 µM | 35 µM | 35 µM | 1.62 µM | 1.74 µM | 1.85 µM | 1.78 µM | 2.71 µM | 3.01 µM | 3.41 µM | 2.65 µM | – | – |
| CC(=O)Nc1ccc(NCC(=O)c2ccccc2)cc1 | – | 26.2 µM | 24.9 µM | 27.5 µM | inactive | 58.9 µM | 28.9 µM | 26.3 µM | 23.7 µM | inactive | 23.7 µM | – | 21.9 µM | – | 62% | – |
| Oc1c(Cl)cc(Cl)c2cccnc12 | 3.23 µM | 3.82 µM | 4.91 µM | 3.34 µM | > 80 µM (inactive) | > 80 µM | 2.48 µM | 2.71 µM | 2.94 µM | 4.45 µM | 4.17 µM | – | 3.89 µM | – | 90.2% | – |
| Cc1ccc(S(=O)(=O)c2ccc([N+](=O)[O-])o2)cc1 | 9.88 µM | 10.9 µM | > 80 µM | 11.9 µM | > 80 µM (inactive) | > 80 µM | – | 8.34 µM | 8.34 µM | inactive | 11.8 µM | – | > 80 µM | – | – | 77.6% |
